Results reported in the kinase profiling compilation of Christmann-Franck et al. (2016).

Experiments:
Assay in all cases: KINOMEscan competition binding
Details in all cases: compound 10.0 µM
[1] = system: ABL1 (human), P00519 [E255K]
[2] = system: ABL1 (human), P00519 [M351T]
[3] = system: ABL1 (human), P00519 [Q252H]
[4] = system: ABL1 (human), P00519 [T315I]
[5] = system: EGFR (human), P00533 [746-750 del]
[6] = system: EGFR (human), P00533 [G719S]
[7] = system: EGFR (human), P00533 [L861Q]
[8] = system: EGFR (human), P00533 [P753S; 747-752 del]
[9] = system: EIF2AK4 KD2 (human), Q9P2K8 [S808G]
Sequence of EIF2AK4 KD2 (human), Q9P2K8 [S808G] (Q9P2K8 whole entry S808G, looked up): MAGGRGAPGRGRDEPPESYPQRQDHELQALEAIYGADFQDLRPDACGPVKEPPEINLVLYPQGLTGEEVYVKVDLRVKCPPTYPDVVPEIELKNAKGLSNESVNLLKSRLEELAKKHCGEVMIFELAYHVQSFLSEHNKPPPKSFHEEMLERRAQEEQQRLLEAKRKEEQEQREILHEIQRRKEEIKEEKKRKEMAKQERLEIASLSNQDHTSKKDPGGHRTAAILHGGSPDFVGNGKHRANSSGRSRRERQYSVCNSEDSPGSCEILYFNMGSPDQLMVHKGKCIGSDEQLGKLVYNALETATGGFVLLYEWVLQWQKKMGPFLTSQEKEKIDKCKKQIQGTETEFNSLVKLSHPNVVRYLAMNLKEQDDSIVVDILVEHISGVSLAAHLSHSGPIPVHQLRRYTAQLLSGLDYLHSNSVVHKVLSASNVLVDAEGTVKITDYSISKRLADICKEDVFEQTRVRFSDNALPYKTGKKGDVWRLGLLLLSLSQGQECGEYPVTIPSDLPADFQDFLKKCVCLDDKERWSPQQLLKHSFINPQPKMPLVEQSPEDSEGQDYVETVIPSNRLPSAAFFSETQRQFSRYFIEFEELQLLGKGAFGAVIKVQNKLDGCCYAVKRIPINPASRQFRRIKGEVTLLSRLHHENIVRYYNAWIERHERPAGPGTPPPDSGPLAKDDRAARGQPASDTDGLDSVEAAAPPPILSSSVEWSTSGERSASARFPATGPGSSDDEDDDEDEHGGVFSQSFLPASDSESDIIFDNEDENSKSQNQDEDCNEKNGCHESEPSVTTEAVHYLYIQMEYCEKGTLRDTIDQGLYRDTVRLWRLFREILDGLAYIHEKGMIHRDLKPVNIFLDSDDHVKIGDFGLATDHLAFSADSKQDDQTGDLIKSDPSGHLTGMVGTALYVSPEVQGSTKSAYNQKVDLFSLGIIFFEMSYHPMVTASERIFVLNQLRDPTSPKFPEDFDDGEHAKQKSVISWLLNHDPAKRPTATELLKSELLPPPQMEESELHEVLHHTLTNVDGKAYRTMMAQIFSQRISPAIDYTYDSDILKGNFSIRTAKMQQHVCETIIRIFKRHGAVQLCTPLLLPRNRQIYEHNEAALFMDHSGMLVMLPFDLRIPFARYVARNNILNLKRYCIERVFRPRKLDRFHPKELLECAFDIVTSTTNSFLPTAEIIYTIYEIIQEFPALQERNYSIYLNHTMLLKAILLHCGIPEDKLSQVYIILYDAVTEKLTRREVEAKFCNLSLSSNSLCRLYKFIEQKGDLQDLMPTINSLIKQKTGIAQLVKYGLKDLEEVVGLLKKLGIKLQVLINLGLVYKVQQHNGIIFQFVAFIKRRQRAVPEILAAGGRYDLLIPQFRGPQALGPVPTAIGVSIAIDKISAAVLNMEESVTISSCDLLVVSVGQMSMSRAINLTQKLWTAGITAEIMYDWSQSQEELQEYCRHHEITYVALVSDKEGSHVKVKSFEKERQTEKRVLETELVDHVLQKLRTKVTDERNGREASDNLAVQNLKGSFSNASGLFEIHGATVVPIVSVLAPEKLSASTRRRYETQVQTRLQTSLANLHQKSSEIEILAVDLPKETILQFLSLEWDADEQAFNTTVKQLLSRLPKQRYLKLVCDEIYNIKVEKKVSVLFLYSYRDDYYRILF

[10] = system: FLT3 (human), P36888 [ITD]
[11] = system: FLT3 (human), P36888 [N841I]
[12] = system: KIT (human), P10721 [D816V]
Sequence of KIT (human), P10721 [D816V] (P10721 whole entry D816V, looked up): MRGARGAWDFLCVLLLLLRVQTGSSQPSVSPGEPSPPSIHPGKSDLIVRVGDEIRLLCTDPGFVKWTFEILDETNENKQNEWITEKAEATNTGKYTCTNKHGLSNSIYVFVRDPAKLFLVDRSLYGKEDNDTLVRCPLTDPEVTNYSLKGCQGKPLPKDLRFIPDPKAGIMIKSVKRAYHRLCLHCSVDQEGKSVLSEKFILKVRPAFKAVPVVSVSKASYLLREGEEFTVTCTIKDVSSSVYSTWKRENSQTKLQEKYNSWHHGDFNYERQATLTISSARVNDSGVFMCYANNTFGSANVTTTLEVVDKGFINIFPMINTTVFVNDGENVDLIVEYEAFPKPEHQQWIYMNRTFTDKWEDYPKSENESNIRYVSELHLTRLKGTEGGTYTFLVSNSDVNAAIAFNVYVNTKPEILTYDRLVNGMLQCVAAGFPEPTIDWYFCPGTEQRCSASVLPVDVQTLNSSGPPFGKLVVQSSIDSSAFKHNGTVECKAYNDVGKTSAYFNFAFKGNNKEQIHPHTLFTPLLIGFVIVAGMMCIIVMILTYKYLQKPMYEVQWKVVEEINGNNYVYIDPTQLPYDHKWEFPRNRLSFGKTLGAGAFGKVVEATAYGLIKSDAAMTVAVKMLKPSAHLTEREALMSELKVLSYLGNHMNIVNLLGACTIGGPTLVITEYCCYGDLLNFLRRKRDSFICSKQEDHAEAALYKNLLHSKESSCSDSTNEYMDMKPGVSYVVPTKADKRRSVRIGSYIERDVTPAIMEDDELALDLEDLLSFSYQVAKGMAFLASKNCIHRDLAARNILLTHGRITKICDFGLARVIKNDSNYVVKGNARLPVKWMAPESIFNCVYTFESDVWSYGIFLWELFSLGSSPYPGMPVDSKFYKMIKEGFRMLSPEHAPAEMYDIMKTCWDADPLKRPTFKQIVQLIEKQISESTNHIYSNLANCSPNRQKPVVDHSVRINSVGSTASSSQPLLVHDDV

[13] = system: KIT (human), P10721 [V559D/T670I]
Sequence of KIT (human), P10721 [V559D/T670I] (P10721 whole entry V559D/T670I, looked up): as the sequence (P10721 whole entry D816V, looked up) above, with V559D, T670I, V816D counted along it

[14] = system: KIT (human), P10721 [V559D]
Sequence of KIT (human), P10721 [V559D] (P10721 whole entry V559D, looked up): as the sequence (P10721 whole entry D816V, looked up) above, with V559D, V816D counted along it

[15] = system: PIK3CA (human), P42336 [E545K]
Sequence of PIK3CA (human), P42336 [E545K] (P42336 whole entry E545K, looked up): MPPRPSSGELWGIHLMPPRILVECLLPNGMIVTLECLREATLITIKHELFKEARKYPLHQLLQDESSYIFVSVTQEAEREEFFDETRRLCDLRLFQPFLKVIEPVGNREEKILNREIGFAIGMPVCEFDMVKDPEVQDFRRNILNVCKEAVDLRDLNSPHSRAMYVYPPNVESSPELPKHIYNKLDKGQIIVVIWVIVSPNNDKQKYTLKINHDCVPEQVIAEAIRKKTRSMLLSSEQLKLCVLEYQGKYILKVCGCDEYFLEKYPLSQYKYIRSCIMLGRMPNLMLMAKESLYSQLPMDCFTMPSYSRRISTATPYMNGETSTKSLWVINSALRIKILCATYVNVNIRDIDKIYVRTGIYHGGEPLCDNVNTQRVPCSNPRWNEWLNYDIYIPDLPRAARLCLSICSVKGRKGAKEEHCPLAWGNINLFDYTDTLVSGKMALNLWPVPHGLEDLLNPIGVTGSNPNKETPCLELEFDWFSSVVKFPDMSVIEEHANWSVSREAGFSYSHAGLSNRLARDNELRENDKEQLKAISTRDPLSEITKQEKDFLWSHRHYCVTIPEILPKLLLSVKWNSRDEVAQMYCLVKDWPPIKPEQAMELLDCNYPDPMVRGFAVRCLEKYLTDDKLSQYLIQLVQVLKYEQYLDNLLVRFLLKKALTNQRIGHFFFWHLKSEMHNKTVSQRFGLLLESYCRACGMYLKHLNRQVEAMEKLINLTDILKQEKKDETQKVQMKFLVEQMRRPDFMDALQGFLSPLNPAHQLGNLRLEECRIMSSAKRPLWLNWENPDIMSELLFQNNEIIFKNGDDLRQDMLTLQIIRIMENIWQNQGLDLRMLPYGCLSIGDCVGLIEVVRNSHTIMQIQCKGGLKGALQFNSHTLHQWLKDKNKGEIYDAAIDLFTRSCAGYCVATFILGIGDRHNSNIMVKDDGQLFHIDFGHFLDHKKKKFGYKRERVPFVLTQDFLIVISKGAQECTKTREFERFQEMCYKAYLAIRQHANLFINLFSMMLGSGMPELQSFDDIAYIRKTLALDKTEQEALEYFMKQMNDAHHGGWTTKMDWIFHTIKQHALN

[16] = system: FLT3 (human), P36888 [K663Q]
[17] = system: PIK3CA (human), P42336 [C420R]
Sequence of PIK3CA (human), P42336 [C420R] (P42336 whole entry C420R, looked up): as the sequence (P42336 whole entry E545K, looked up) above, with C420R, K545E counted along it

[18] = system: PIK3CA (human), P42336 [E545A]
Sequence of PIK3CA (human), P42336 [E545A] (P42336 whole entry E545A, looked up): as the sequence (P42336 whole entry E545K, looked up) above, with K545A counted along it

[19] = system: PIK3CA (human), P42336 [H1047Y]
Sequence of PIK3CA (human), P42336 [H1047Y] (P42336 whole entry H1047Y, looked up): as the sequence (P42336 whole entry E545K, looked up) above, with K545E, H1047Y counted along it

[20] = system: PIK3CA (human), P42336 [I800L]
Sequence of PIK3CA (human), P42336 [I800L] (P42336 whole entry I800L, looked up): as the sequence (P42336 whole entry E545K, looked up) above, with K545E, I800L counted along it

[21] = system: PIK3CA (human), P42336 [Q546K]
Sequence of PIK3CA (human), P42336 [Q546K] (P42336 whole entry Q546K, looked up): as the sequence (P42336 whole entry E545K, looked up) above, with K545E, Q546K counted along it

Compound `COc1ccc(N(C(=O)Oc2cc(C(=O)Nc3cccc(C(F)(F)F)c3)ccc2C)c2ccnc(Nc3ccc(N4CCN(C)CC4)cc3)n2)c(OC)c1` has a kinase still bound, per cent of control [1] of 7.2%, a kinase still bound, per cent of control [2] of 1.4% and a kinase still bound, per cent of control [3] of 1.8%. For the same compound, the kinase still bound, per cent of control [4] was 0.45%, the kinase still bound, per cent of control [5] was 6.1% and the kinase still bound, per cent of control [6] was 18%. For the same compound, the kinase still bound, per cent of control [7] was 1%, the kinase still bound, per cent of control [8] was 2.5% and the kinase still bound, per cent of control [9] was 100%. It also gave a kinase still bound, per cent of control [10] of 100%, a kinase still bound, per cent of control [11] of 29% and a kinase still bound, per cent of control [12] of 0.75%. The kinase still bound, per cent of control [13] was 3.8%, the kinase still bound, per cent of control [14] was 0.5% and the kinase still bound, per cent of control [15] was 100%.
`C=CC(=O)Nc1ccc(CN(C(=O)Nc2c(Cl)c(OC)cc(OC)c2Cl)c2cc(Nc3ccc(N4CCN(C)CC4)cc3)ncn2)cc1` showed a kinase still bound, per cent of control [1] of 100%, a kinase still bound, per cent of control [2] of 16% and a kinase still bound, per cent of control [3] of 14%. The kinase still bound, per cent of control [4] was 6.4%, the kinase still bound, per cent of control [5] was 0.6% and the kinase still bound, per cent of control [6] was 0.15%. For the same compound, the kinase still bound, per cent of control [7] was 0.1%, the kinase still bound, per cent of control [8] was 0.45% and the kinase still bound, per cent of control [9] was 1.5%. The kinase still bound, per cent of control [10] was 100%, the kinase still bound, per cent of control [16] was 21% and the kinase still bound, per cent of control [11] was 8.4%. For the same compound, the kinase still bound, per cent of control [12] was 7.2%, the kinase still bound, per cent of control [13] was 29% and the kinase still bound, per cent of control [14] was 0.1%. For the same compound, the kinase still bound, per cent of control [15] was 100%.
Work on `COc1cc(N2CCC(C(N)=O)CC2)ccc1Nc1nc(N)c(Cl)c(Nc2ccccc2S(=O)(=O)C(C)C)n1` yielded a kinase still bound, per cent of control [1] of 100%, a kinase still bound, per cent of control [2] of 100% and a kinase still bound, per cent of control [3] of 100%. It also gave a kinase still bound, per cent of control [4] of 100%, a kinase still bound, per cent of control [5] of 0% and a kinase still bound, per cent of control [6] of 21%. For the same compound, the kinase still bound, per cent of control [7] was 0.3%, the kinase still bound, per cent of control [8] was 2.9% and the kinase still bound, per cent of control [9] was 100%. For the same compound, the kinase still bound, per cent of control [10] was 20%, the kinase still bound, per cent of control [16] was 100% and the kinase still bound, per cent of control [11] was 13%. For the same compound, the kinase still bound, per cent of control [12] was 24%, the kinase still bound, per cent of control [13] was 100% and the kinase still bound, per cent of control [14] was 100%. The kinase still bound, per cent of control [15] was 100%.
`CCN(CC)CCCCNc1ncc2cc(-c3cc(OC)cc(OC)c3)c(NC(=O)NC(C)(C)C)nc2n1` was tested, and the kinase still bound, per cent of control [1] was 100%, the kinase still bound, per cent of control [2] was 100% and the kinase still bound, per cent of control [3] was 100%. The kinase still bound, per cent of control [4] was 100%, the kinase still bound, per cent of control [9] was 100% and the kinase still bound, per cent of control [10] was 100%. The kinase still bound, per cent of control [11] was 100%, the kinase still bound, per cent of control [12] was 100% and the kinase still bound, per cent of control [13] was 100%. It also gave a kinase still bound, per cent of control [14] of 100% and a kinase still bound, per cent of control [15] of 100%.
With `Cc1n[nH]c2ccc(-c3cncc(OC[C@@H](N)Cc4c[nH]c5ccccc45)c3)cc12` the kinase still bound, per cent of control [1] was 100%, the kinase still bound, per cent of control [2] was 100% and the kinase still bound, per cent of control [3] was 100%. It also gave a kinase still bound, per cent of control [4] of 100%, a kinase still bound, per cent of control [9] of 100% and a kinase still bound, per cent of control [10] of 0.1%. The kinase still bound, per cent of control [16] was 3.8%, the kinase still bound, per cent of control [11] was 0.1% and the kinase still bound, per cent of control [12] was 1.1%. The kinase still bound, per cent of control [13] was 100%, the kinase still bound, per cent of control [14] was 100% and the kinase still bound, per cent of control [15] was 100%.
Compound `O=C(Nc1cccc(Nc2ncc(Br)c(NCCc3cnc[nH]3)n2)c1)N1CCCC1` has a kinase still bound, per cent of control [1] of 0.15%, a kinase still bound, per cent of control [2] of 0.5% and a kinase still bound, per cent of control [5] of 62%. It also gave a kinase still bound, per cent of control [6] of 51%, a kinase still bound, per cent of control [7] of 75% and a kinase still bound, per cent of control [8] of 63%. For the same compound, the kinase still bound, per cent of control [9] was 0.7%, the kinase still bound, per cent of control [10] was 0% and the kinase still bound, per cent of control [16] was 0.1%. The kinase still bound, per cent of control [11] was 0%, the kinase still bound, per cent of control [12] was 0.15% and the kinase still bound, per cent of control [13] was 2.3%. The kinase still bound, per cent of control [14] was 0.05%, the kinase still bound, per cent of control [17] was 81% and the kinase still bound, per cent of control [18] was 94%. The kinase still bound, per cent of control [15] was 100%, the kinase still bound, per cent of control [19] was 62% and the kinase still bound, per cent of control [20] was 100%. It also gave a kinase still bound, per cent of control [21] of 46%.
